Data taken from PubChem BioAssay AID256 (DTP/NCI, 2004).
Values joined by “and” are separate entries in the source; they are usually repeats but may differ in a detail not shown here. Equal entries are not always repeated. Toxic doses and inconclusive results are not listed. The calls were made as follows: active = survival T/C of 150% or more; inactive = T/C below 125% in these data.

System: CD2F1 mice, L1210 leukemia ip, survival T/C
Assay: NCI In Vivo Anticancer Drug Screen. Data for tumor model L1210 Leukemia (intraperitoneal) in CD2F1 (CDF1) mice
Conditions: higher = longer survival
Summary of the method: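 Each value reflects a quotient of treated over vehicle control outcomes in mice with a transplanted tumor.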

[1] = endpoint: mean survival time, dose: 100.0 mg/kg/injection, schedule: Q04DX003 (ip), vehicle: saline with Tween-80
[2] = endpoint: mean survival time, dose: 200.0 mg/kg/injection, schedule: Q04DX003 (ip), vehicle: saline with Tween-80
[3] = endpoint: mean survival time, dose: 400.0 mg/kg/injection, schedule: Q04DX003 (ip), vehicle: saline with Tween-80
[4] = endpoint: mean survival time, dose: 12.5 mg/kg/injection, schedule: Q01DX009 (ip), vehicle: saline with Tween-80
[5] = endpoint: mean survival time, dose: 25.0 mg/kg/injection, schedule: Q01DX009 (ip), vehicle: saline with Tween-80
[6] = endpoint: mean survival time, dose: 50.0 mg/kg/injection, schedule: Q01DX009 (ip), vehicle: saline with Tween-80
[7] = endpoint: mean survival time, dose: 200.0 mg/kg/injection, schedule: Q01DX009 (ip), vehicle: saline with Tween-80
[8] = endpoint: mean survival time, dose: 12.5 mg/kg/injection, schedule: Q01DX009 (ip), vehicle: water
[9] = endpoint: mean survival time, dose: 25.0 mg/kg/injection, schedule: Q01DX009 (ip), vehicle: saline
[10] = endpoint: mean survival time, dose: 100.0 mg/kg/injection, schedule: Q01DX009 (ip), vehicle: saline with Tween-80
[11] = endpoint: mean survival time, dose: 400.0 mg/kg/injection, schedule: Q01DX009 (ip), vehicle: saline with Tween-80

Measured: T/C

CCc1cc(C)cc(OC(=O)Nc2cccc(Cl)c2)c1
inactive: [1] 88 % of control | [2] 92 % of control | [3] 92 % of control

O=C(O)C(CSC(c1ccccc1)(c1ccccc1)c1ccccc1)NC(c1ccccc1)(c1ccccc1)c1ccccc1 (configuration not stated)
inactive: endpoint: mean survival time, dose: 75.0 mg/kg/injection, schedule: Q01DX001 (ip), vehicle: other 97 % of control

COc1cc(OC)c(NC(=O)NCc2ccco2)cc1Cl
inactive: [4] 103 % of control | [5] 95 % of control | [6] 88 % of control and 98 % of control | [7] 92 % of control

C[n+]1c(-c2cccc3ccccc23)c2cc(N)ccc2c2ccccc21
inactive: endpoint: mean survival time, dose: 0.78 mg/kg/injection, schedule: Q01DX009 (ip), vehicle: water 106 % of control | endpoint: mean survival time, dose: 1.56 mg/kg/injection, schedule: Q01DX009 (ip), vehicle: saline 108 % of control | endpoint: mean survival time, dose: 1.56 mg/kg/injection, schedule: Q01DX009 (ip), vehicle: water 103 % of control | endpoint: mean survival time, dose: 3.12 mg/kg/injection, schedule: Q01DX009 (ip), vehicle: saline 118 % of control | endpoint: mean survival time, dose: 3.13 mg/kg/injection, schedule: Q01DX009 (ip), vehicle: water 111 % of control | endpoint: mean survival time, dose: 3.5 mg/kg/injection, schedule: Q01DX009 (ip), vehicle: water 104 % of control | endpoint: mean survival time, dose: 5.3 mg/kg/injection, schedule: Q01DX009 (ip), vehicle: water 106 % of control | endpoint: mean survival time, dose: 6.25 mg/kg/injection, schedule: Q01DX009 (ip), vehicle: saline 106 % of control | endpoint: mean survival time, dose: 6.25 mg/kg/injection, schedule: Q01DX009 (ip), vehicle: water 97 % of control and 110 % of control | endpoint: mean survival time, dose: 8.0 mg/kg/injection, schedule: Q01DX009 (ip), vehicle: water 114 % of control | endpoint: mean survival time, dose: 12.0 mg/kg/injection, schedule: Q01DX009 (ip), vehicle: water 121 % of control | endpoint: mean survival time, dose: 12.5 mg/kg/injection, schedule: Q01DX009 (ip), vehicle: saline 116 % of control | [8] 119 % of control and 122 % of control | endpoint: mean survival time, dose: 18.0 mg/kg/injection, schedule: Q01DX009 (ip), vehicle: water 112 % of control | [9] 93 % of control

O=[N+]([O-])c1ccc(N2CCOCC2)c([N+](=O)[O-])c1
inactive: [10] 103 % of control | [1] 97 % of control | [7] 100 % of control | [2] 103 % of control | [11] 97 % of control | [3] 100 % of control

COC1OC(COS(C)(=O)=O)C(OS(C)(=O)=O)C(OS(C)(=O)=O)C1OS(C)(=O)=O (configuration not stated)
inactive: [10] 95 % of control | [7] 101 % of control | [11] 94 % of control

O=C(C[n+]1ccccc1)N/N=C/c1ccccc1Cl
inactive: [10] 105 % of control

Nc1nc2c(ncn2-c2ccc(Cl)c(Cl)c2)c(=O)[nH]1
inactive: endpoint: mean survival time, dose: 50.0 mg/kg/injection, schedule: Q04DX002 (ip), vehicle: saline with Tween-80 98 % of control | endpoint: mean survival time, dose: 100.0 mg/kg/injection, schedule: Q04DX002 (ip), vehicle: saline with Tween-80 93 % of control and 97 % of control | endpoint: mean survival time, dose: 200.0 mg/kg/injection, schedule: Q04DX002 (ip), vehicle: saline with Tween-80 97 % of control | endpoint: mean survival time, dose: 400.0 mg/kg/injection, schedule: Q04DX002 (ip), vehicle: saline with Tween-80 93 % of control

O=C(O)c1cc(C(=O)O)c(C(=O)O)cc1C(=O)O.[NH-]C1CCCC1.[NH-]C1CCCC1.[NH-]C1CCCC1.[NH-]C1CCCC1.[Pt+2].[Pt+2]
inactive: endpoint: mean survival time, dose: 3.12 mg/kg/injection, schedule: Q04DX003 (ip), vehicle: distilled water + Tween-80 103 % of control | endpoint: mean survival time, dose: 6.25 mg/kg/injection, schedule: Q04DX003 (ip), vehicle: distilled water + Tween-80 107 % of control | endpoint: mean survival time, dose: 12.5 mg/kg/injection, schedule: Q04DX003 (ip), vehicle: distilled water + Tween-80 108 % of control | endpoint: mean survival time, dose: 25.0 mg/kg/injection, schedule: Q04DX003 (ip), vehicle: distilled water + Tween-80 111 % of control | endpoint: mean survival time, dose: 50.0 mg/kg/injection, schedule: Q04DX003 (ip), vehicle: distilled water + Tween-80 108 % of control | endpoint: mean survival time, dose: 100.0 mg/kg/injection, schedule: Q04DX003 (ip), vehicle: distilled water + Tween-80 113 % of control | endpoint: mean survival time, dose: 200.0 mg/kg/injection, schedule: Q04DX003 (ip), vehicle: distilled water + Tween-80 124 % of control

COC1=CCC(OC)=C(C)C1
inactive: [1] 93 % of control

CCCC(C)C1(CC)C(=O)NC(=O)NC1=O (configuration not stated)
inactive: endpoint: mean survival time, dose: 20.0 mg/kg/injection, schedule: Q01DX009 (ip), vehicle: saline 95 % of control | endpoint: mean survival time, dose: 40.0 mg/kg/injection, schedule: Q01DX009 (ip), vehicle: saline 104 % of control

CN=Cc1ccc(OC)cc1
inactive: [5] 116 % of control | [6] 96 % of control | [10] 102 % of control | [1] 94 % of control

COc1ccc(CCNC(C)Cc2ccc(OC)c(OC)c2)cc1OC (configuration not stated)
inactive: [8] 104 % of control | endpoint: mean survival time, dose: 25.0 mg/kg/injection, schedule: Q01DX009 (ip), vehicle: water 101 % of control | endpoint: mean survival time, dose: 50.0 mg/kg/injection, schedule: Q01DX009 (ip), vehicle: water 103 % of control

CC([NH-])CC[NH-].[I][Pt+2][I] (configuration not stated)
inactive: endpoint: mean survival time, dose: 12.5 mg/kg/injection, schedule: Q04DX003 (ip), vehicle: saline with Tween-80 118 % of control | endpoint: mean survival time, dose: 25.0 mg/kg/injection, schedule: Q04DX003 (ip), vehicle: saline with Tween-80 124 % of control | endpoint: mean survival time, dose: 50.0 mg/kg/injection, schedule: Q04DX003 (ip), vehicle: saline with Tween-80 109 % of control

C[Si](C)(CCl)N[Si](C)(C)CCl
inactive: [10] 100 % of control | [1] 98 % of control | [7] 97 % of control | [2] 96 % of control | [11] 100 % of control | [3] 102 % of control

O=c1[nH]cc(Cl)cc1Cl
inactive: endpoint: mean survival time, dose: 100.0 mg/kg/injection, schedule: Q04DX003 (ip), vehicle: other 91 % of control | endpoint: mean survival time, dose: 200.0 mg/kg/injection, schedule: Q04DX003 (ip), vehicle: other 103 % of control | endpoint: mean survival time, dose: 400.0 mg/kg/injection, schedule: Q04DX003 (ip), vehicle: other 105 % of control

O=[N+]([O-])c1ccc(Sc2ccncn2)c([N+](=O)[O-])c1
inactive: endpoint: median survival time, dose: 6.25 mg/kg/injection, schedule: Q01DX009 (ip), vehicle: saline with Tween-80 101 % of control | endpoint: median survival time, dose: 12.5 mg/kg/injection, schedule: Q01DX009 (ip), vehicle: saline with Tween-80 102 % of control | endpoint: median survival time, dose: 25.0 mg/kg/injection, schedule: Q01DX009 (ip), vehicle: saline with Tween-80 103 % of control | endpoint: median survival time, dose: 50.0 mg/kg/injection, schedule: Q01DX009 (ip), vehicle: saline with Tween-80 105 % of control | endpoint: median survival time, dose: 100.0 mg/kg/injection, schedule: Q01DX009 (ip), vehicle: saline with Tween-80 113 % of control

Brc1cscc1-c1cccc2ccccc12
inactive: [4] 95 % of control | [5] 95 % of control | [6] 95 % of control

CC1(C)OC2C(CO)OC(n3nc(SCc4ccccc4)c(=S)[nH]c3=O)C2O1 (configuration not stated)
inactive: endpoint: median survival time, dose: 12.5 mg/kg/injection, schedule: Q01DX005 (ip), vehicle: distilled water + Tween-80 96 % of control | endpoint: median survival time, dose: 25.0 mg/kg/injection, schedule: Q01DX005 (ip), vehicle: distilled water + Tween-80 103 % of control | endpoint: median survival time, dose: 50.0 mg/kg/injection, schedule: Q01DX005 (ip), vehicle: distilled water + Tween-80 96 % of control | endpoint: median survival time, dose: 100.0 mg/kg/injection, schedule: Q01DX005 (ip), vehicle: distilled water + Tween-80 96 % of control | endpoint: median survival time, dose: 200.0 mg/kg/injection, schedule: Q01DX005 (ip), vehicle: distilled water + Tween-80 95 % of control

Cc1ccc(S(=O)(=O)Nc2ccccc2-c2nc3ccc(C)cc3c(=O)o2)cc1
inactive: [10] 100 % of control | [7] 91 % of control | [11] 96 % of control

COc1ccc(C(O)(c2ccccc2)C(OC(=O)c2cc([N+](=O)[O-])cc([N+](=O)[O-])c2)c2ccccc2)cc1 (configuration not stated)
inactive: endpoint: mean survival time, dose: 100.0 mg/kg/injection, schedule: Q01DX001 (ip), vehicle: saline with Tween-80 87 % of control | endpoint: mean survival time, dose: 200.0 mg/kg/injection, schedule: Q01DX001 (ip), vehicle: saline with Tween-80 94 % of control | endpoint: mean survival time, dose: 400.0 mg/kg/injection, schedule: Q01DX001 (ip), vehicle: saline with Tween-80 91 % of control

CN(C)CCC(=O)c1ccccc1
inactive: [9] 106 % of control | endpoint: mean survival time, dose: 50.0 mg/kg/injection, schedule: Q01DX009 (ip), vehicle: saline 95 % of control | endpoint: mean survival time, dose: 100.0 mg/kg/injection, schedule: Q01DX009 (ip), vehicle: saline 106 % of control

CN(C)CCc1ccc(O)cc1
inactive: endpoint: mean survival time, dose: 25.0 mg/kg/injection, schedule: Q01DX001 (ip), vehicle: saline 103 % of control | endpoint: mean survival time, dose: 50.0 mg/kg/injection, schedule: Q01DX001 (ip), vehicle: saline 105 % of control | endpoint: mean survival time, dose: 100.0 mg/kg/injection, schedule: Q01DX001 (ip), vehicle: saline 98 % of control and 100 % of control | [10] 97 % of control | [1] 102 % of control | [7] 102 % of control | [2] 96 % of control | [11] 101 % of control | [3] 104 % of control
